Assay results reported in ChEMBL document CHEMBL4622948, “SAR of non-hydrolysable analogs of pyridoxal 5'-phosphate against low molecular weight protein tyrosine phosphatase isoforms” (Bioorg Med Chem Lett, 2020).

Experiments:
[1] = Competitive inhibition of bovine LMW-PTP isoform B using para-Nitrophenyl phosphate as substrate at pH 5 by Lineweaver-Burk double reciprocal plot analysis; parameters: species or system Bos taurus
[2] = target: T1, Low molecular weight phosphotyrosine protein phosphatase (Homo sapiens, UniProt P24666); assay: Competitive inhibition of LMW-PTP isoform A (unknown origin)
T1 sequence (P24666 whole entry): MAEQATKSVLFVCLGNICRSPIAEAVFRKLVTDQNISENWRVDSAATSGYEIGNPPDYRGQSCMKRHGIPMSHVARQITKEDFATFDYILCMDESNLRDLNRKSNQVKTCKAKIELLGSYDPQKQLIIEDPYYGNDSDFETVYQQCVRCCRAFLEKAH

[3] = target: T2, Low molecular weight phosphotyrosine protein phosphatase (Homo sapiens) (UniProt P24666); assay: Inhibition of LMW-PTP isoform A (unknown origin)
T2 sequence (whole entry): T1 sequence (P24666 whole entry)

[4] = target: T2, Low molecular weight phosphotyrosine protein phosphatase (Homo sapiens); assay: Inhibition of LMW-PTP isoform B (unknown origin)
[5] = species on record: Homo sapiens; assay: Selectivity index, ratio of Ki for LMW-PTP isoform B (unknown origin) to Ki for LMW-PTP isoform A (unknown origin)

Cc1ncc(COP(=O)(O)O)c(C=O)c1O [PYRIDOXAL PHOSPHATE ANHYDROUS]
Ki [1]: 7.6 µM | Ki [2]: 13 µM

O=P(O)(O)/C=C/c1cccnc1
Kis [3]: 243 µM | Kis [4]: 1070 µM | Ratio [5]: 4.4

O=P(O)(O)CCc1cccc(O)c1
Kis [3]: 13 µM | Kis [4]: 52.2 µM | Ratio [5]: 4

O=P(O)(O)/C=C/c1ccccc1
Kis [3]: 482 µM | Kis [4]: > 10000 µM | Ratio [5]: > 21

Cc1ccc(/C=C/P(=O)(O)O)cn1
Kis [3]: 213 µM | Kis [4]: 842 µM | Ratio [5]: 4

O=P(O)(O)/C=C/c1cccc(O)c1
Kis [3]: 15.7 µM | Kis [4]: 580 µM | Ratio [5]: 37

Cc1ccc(CCP(=O)(O)O)cc1
Kis [3]: 130 µM | Kis [4]: 323 µM | Ratio [5]: 2.5

Cc1ccc(CCP(=O)(O)O)cn1
Kis [3]: 1.84 µM | Kis [4]: 15.6 µM | Ratio [5]: 8.5

Cc1ccc(/C=C/P(=O)(O)O)cc1
Kis [3]: 66.8 µM | Kis [4]: 323 µM | Ratio [5]: 4.8

Cc1ncc(CCP(=O)(O)O)c(CO)c1O
Kis [3]: 10.4 µM | Kis [4]: 552 µM | Ratio [5]: 53

Cc1ccc(CCP(=O)(O)O)cc1O
Kis [3]: 3.59 µM | Kis [4]: 39.9 µM | Ratio [5]: 11

O=P(O)(O)C(F)(F)Cc1ccccc1
Kis [3]: 359 µM | Kis [4]: > 10000 µM | Ratio [5]: > 28

Cc1ncc(CCP(=O)(O)O)c(C=O)c1O
Kis [3]: 74.9 µM | Kis [4]: 218 µM | Ratio [5]: 2.9

Cc1ncc(/C=C/P(=O)(O)O)c(CO)c1O
Kis [3]: 16.3 µM | Kis [4]: 6060 µM | Ratio [5]: 372

O=P(O)(O)CCc1cccnc1
Kis [3]: 103 µM | Kis [4]: 1080 µM | Ratio [5]: 10.4

Cc1ncc(/C=C/P(=O)(O)O)c(C=O)c1O
Kis [3]: 5.14 µM | Kis [4]: 113 µM | Ratio [5]: 22

Cc1ccc(/C=C/P(=O)(O)O)cc1O
Kis [3]: 50.3 µM | Kis [4]: 42.4 µM | Ratio [5]: 0.8

O=P(O)(O)CCc1ccccc1
Kis [3]: 552 µM | Kis [4]: > 10000 µM | Ratio [5]: > 18
